Where no end group is shown, it is not given here.
Assays:
NOD mice = conditions: 210 nmol/kg s.c. twice weekly for 24 weeks
Description: Female 4-week-old NOD mice were obtained from Beijing HFK Bioscience Co. Ltd. (Beijing, China). NOD mice were randomly divided into 4 groups: vehicle, PGLP-1, VP and PGLP-1-VP, and each group was subcutaneously injected twice weekly with placebo [Lipofundin[32] (B. Braun Melsungen AG, Melsungen, Germany)] or 210 nmol/kg of peptides for 24 weeks. Body weight and blood glucose were measured once every 2 weeks until the end of the observation period. NOD mice were considered diabetic when blood glucose concentrations exceeded 200 mg/dL for 2 consecutive measurements. The onset time and death time of diabetic mice were calculated. Indexes of dead mice were shown as the last blood glucose or weight data. Blood samples were collected retro-orbital and centrifuged, and then serum was collected. Serum C-peptide levels and transforming growth factor-β1 (TGF-β1) were measured by enzyme-linked immunosorbent kits (Jiancheng Bio-Engineering Institute Co., Ltd. Nanjing, China).

human GLP-1R = human GLP-1R (Homo sapiens, UniProt P43220); assay: cell-based
Description: Human embryonic kidney (HEK-293) cells were obtained from ATCC and cultured in growing media (DMEM: 25 mM glucose, 10% FBS, 100 µg/mL penicillin and 100 µg/mL streptomycin).

DPP-IV = assay: in vitro; conditions: human, isolated enzyme dpp iv
Description: Stability test for DPP-IV in vitro was performed as previously described.

Chain of human GLP-1R (P43220 24-463): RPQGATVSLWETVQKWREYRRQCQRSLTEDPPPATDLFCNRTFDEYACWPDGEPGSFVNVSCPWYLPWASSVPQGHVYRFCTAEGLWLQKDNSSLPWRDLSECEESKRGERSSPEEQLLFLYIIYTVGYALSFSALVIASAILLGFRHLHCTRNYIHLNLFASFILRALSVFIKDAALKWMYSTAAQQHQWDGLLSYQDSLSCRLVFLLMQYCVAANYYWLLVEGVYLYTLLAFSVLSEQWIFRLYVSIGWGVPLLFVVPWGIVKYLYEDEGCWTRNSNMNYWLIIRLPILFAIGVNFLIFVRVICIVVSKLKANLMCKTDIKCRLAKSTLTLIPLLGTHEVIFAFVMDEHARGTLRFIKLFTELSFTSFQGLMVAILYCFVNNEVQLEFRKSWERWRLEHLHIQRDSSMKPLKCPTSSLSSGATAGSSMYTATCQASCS

Row | Compound | body weights compared to controls (NOD mice) | EC50 (human GLP-1R) [nM] | remaining at 10 h, 10 µM (DPP-IV) [%]
1 | HGEGTFTSDVSSYLEGQAAKEFIAWLVKGRGPGVLGGGCRCIPALDSLTPANED (cysteines drawn unpaired) [PGLP-1-VP] | not affected | 139 ± 37 | –
2 | CC[C@H](C)[C@H](NC(=O)[C@H](Cc1ccccc1)NC(=O)[C@H](CCC(=O)O)NC(=O)[C@H](CCCCN)NC(=O)[C@H](C)NC(=O)[C@H](C)NC(=O)[C@H](CCC(N)=O)NC(=O)CNC(=O)[C@H](CCC(=O)O)NC(=O)[C@H](CC(C)C)NC(=O)[C@H](Cc1ccc(O)cc1)NC(=O)[C@H](CO)NC(=O)[C@H](CO)NC(=O)[C@@H](NC(=O)[C@H](CC(=O)O)NC(=O)[C@H](CO)NC(=O)[C@@H](NC(=O)[C@H](Cc1ccccc1)NC(=O)[C@@H](NC(=O)CNC(=O)[C@H](CCC(=O)O)NC(=O)[C@H](C)NC(=O)[C@@H](N)Cc1c[nH]cn1)[C@@H](C)O)[C@@H](C)O)C(C)C)C(=O)N[C@@H](C)C(=O)N[C@@H](Cc1c[nH]c2ccccc12)C(=O)N[C@@H](CC(C)C)C(=O)N[C@H](C(=O)N[C@@H](CCCCN)C(=O)NCC(=O)N[C@@H](CCCN=C(N)N)C(=O)NCC(=O)O)C(C)C [GLP-1, Glucagon-like peptide-1] | – | – | 6.3
